From patent US20130029998A1, “Method of Detecting and Profiling Progression of the Risk of Neurodegenerative Diseases” (priority 2010, published 2013)

Tests used:
[1] = system: Splotch homozygous (Sp−/−) embryos; assay: Rescue of neural tube defect in Pax3 mutant Splotch mouse model of spina bifida; assay type: in vivo
[2] = system: Splotch homozygous (Sp−/−) embryos; assay: H3K27me2, H3K27me3 and KDM6B staining of neural tube explants from folate-rescued Splotch homozygous embryos; assay type: in vivo, mouse; conditions: folate-rescued Sp−/− embryos E10.0 (30 somite), neural crest cells of neural tube explants, compared with wild-type
Experimental: After 140 hours neural crest cells were allowed to differentiate in the absence of growth factor for 2 days. After differentiation, neural crest cells from wild-type and Sp−/− embryo explant cultures were stained with DAPI, H3K27me2, H3K27me3 and KDM6B antibodies (Abeam, Inc Cambridge, Mass. 02139-1517). DAPI, H3K27me2, H3K27me3 and KDM6B positive cells from five different explant cultures were counted and expressed as a percentage of DAPI positive cells. […] The protein loading control was ascertained with Ponseau S staining.

With Nc1nc2ncc(CNc3ccc(C(=O)N[C@@H](CCC(=O)O)C(=O)O)cc3)nc2c(=O)[nH]1 [Folic acid, folic acid] the neural tube defect [1] was “rescue of neural tube defect”, the “H3K27me2 expression (positive cells as a percentage of DAPI positive cells)” value [2] was “reversal to near wild-type expression” and the “H3K27me3 expression (positive cells as a percentage of DAPI positive cells)” value [2] was “reversal to near wild-type expression”. For the same compound, the “KDM6B expression (positive cells as a percentage of DAPI positive cells)” value [2] was “reversal to near wild-type expression” and the “H3K27me2 expression (positive cells as a percentage of DAPI positive cells)” value ([2]; listed as folic acid) was “reversal”.
